The text below walks through data of patent US7750017B2, “Heterocycles” (Bayer Schering Pharma Aktiengesellschaft, priority 2004, dated 2010).

SMILES strings stand for the structures. Where a name gives a salt, the structure may show the parent alone.

Test [1] concerns A431 cells [human epidermoid carcinoma, overexpressing HER1 (EGFR, ErbB1)]. The test can be described thus: In vitro tumor cell proliferation assay (Cell Titer-Glo luminescent cell viability), A431 cells. It counts as cell-based. Conditions: A-431, 72 h, 72 hours of drug exposure, Cell Titer-Glo readout, read-out: IC50, anti-proliferative activity in A431 cells. (ATP-based viability assays read luminescence as a measure of living cells.)

The test system of test [2] is BT474 [human breast carcinoma, overexpressing HER2 (ErbB2)]. The test can be described thus: In vitro tumor cell proliferation assay (Cell Titer-Glo luminescent cell viability), BT474 cells. It counts as cell-based. The note with it: BT-474, 72 h, 72 hours of drug exposure, Cell Titer-Glo readout, read-out: IC50, anti-proliferative activity in BT474 cells.

For `OCCc1ccc2c(c1)sc1ncnc(Nc3ccc4c(ccn4Cc4ccccc4)c3)c12` [Example 133, 2-{4-[(1-benzyl-1H-indol-5-yl)amino][1]benzothieno[2,3-d]pyrimidin-7-yl}ethanol], the IC50 was at most 50 µM in test [1] and at most 0.5 µM in test [2].

For the compound `COCCN(CCOC)CCc1ccc2c(c1)sc1ncnc(Nc3ccc(OCc4ccccn4)c(Cl)c3)c12` [Example 93, 7-{2-[bis(2-methoxyethyl)amino]ethyl}-N-[3-chloro-4-(pyridin-2-ylmethoxy)phenyl][1]benzothieno [2,3-d]pyrimidin-4-amine trifluoroacetate], the IC50 is at most 50 µM in test [1] and at most 0.5 µM in test [2].

As to `CN(C)[C@@H]1CCN(C(=O)Cc2ccc3c(c2)sc2ncnc(Nc4ccc(OCc5cscn5)c(Cl)c4)c23)C1` [Example 136, N-[3-chloro-4-(1,3-thiazol-4-ylmethoxy)phenyl]-7-{2-[(3R)-3-(dimethylamino)pyrrolidin-1-yl]-2-oxoethyl}[1]benzothieno[2,3-d] pyrimidin-4-amine], the half-maximal inhibitory concentration (IC50) in test [1] was at most 5 µM; in test [2], at most 0.5 µM.

Turning to `Fc1cccc(COc2ccc(Nc3ncnc4sc5cc(CCN6CCNCC6)ccc5c34)cc2Cl)c1` [Example 23, N-{3-chloro-4-[(3-fluorobenzyl)oxy]phenyl}-7-(2-piperazin-1-ylethyl)[1]benzothieno [2,3-d]pyrimidin-4-amine], the figures for the IC50 in test [1] and in test [2] were at most 5 µM and at most 0.5 µM, respectively.

On to `O=C(Cc1ccc2c(c1)sc1ncnc(Nc3ccc(OCc4cscn4)c(Cl)c3)c12)NCCN1CCOCC1` [Example 140, 2-(4-{[3-chloro-4-(1,3-thiazol-4-ylmethoxy)phenyl]amino}[1]benzothieno[2,3-d]pyrimidin-7-yl)-N-(2-morpholin-4-ylethyl) acetamide], for which the concentration for half-maximal inhibition (IC50) was at most 50 µM in test [1] and at most 5 µM in test [2].

Take `O=C(Cc1ccc2c(c1)sc1ncnc(Nc3ccc(OCc4cscn4)c(Cl)c3)c12)NCCOCCO` [Example 145, 2-(4-{[3-chloro-4-(1,3-thiazol-4-ylmethoxy)phenyl]amino}[1]benzothieno[2,3-d]pyrimidin-7-yl)-N-[2-(2-hydroxyethoxy)ethyl] acetamide]: the IC50 was at most 50 µM in test [1] and at most 5 µM in test [2].

As for `CN1CCN(CCc2ccc3c(c2)sc2ncnc(Nc4ccc(OCc5cccc(F)c5)c(Cl)c4)c23)CC1` [Example 21, N-{3-chloro-4-[(3-fluorobenzyl)oxy]phenyl}-7-[2-(4-methylpiperazin-1-yl)ethyl][1] benzothieno[2,3-d]pyrimidin-4-amine], the IC50 in test [1] is at most 5 µM; in test [2] it was at most 0.5 µM.

For the compound `CS(=O)(=O)CCNC(=O)Cc1ccc2c(c1)sc1ncnc(Nc3ccc4c(cnn4Cc4cccc(F)c4)c3)c12` [Example 122, 2-(4-{[1-(3-fluorobenzyl)-1H-indazol-5-yl]amino}[1]benzothieno[2,3-d]pyrimidin-7-yl)-N-[2-(methylsulfonyl)ethyl] acetamide], the 50% inhibitory concentration (IC50) is at most 5 µM in test [1] and at most 0.5 µM in test [2].

For `CN(C)[C@H]1CCN(CCc2ccc3c(c2)sc2ncnc(Nc4ccc(OCc5cccc(F)c5)c(Cl)c4)c23)C1` [Example 24, N-{3-chloro-4-[(3-fluorobenzyl)oxy]phenyl}-7-{2-[3-(dimethylamino)pyrrolidin-1-yl]ethyl}[1]benzothieno[2,3-d] pyrimidin-4-amine], the IC50 in test [1] and in test [2] was at most 5 µM in each case.

Turning to `CCOC(=O)C(C(=O)OCC)c1ccc2c(c1)sc1ncnc(Nc3ccc4c(cnn4Cc4cccc(F)c4)c3)c12` [Example 118, diethyl (4-{[1-(3-fluorobenzyl)-1H-indazol-5-yl]amino}[1]benzothieno [2,3-d]pyrimidin-7-yl)malonate], the IC50 in test [1] was at most 50 µM; in test [2], at most 5 µM.

Regarding `COCCN1CCN(C(=O)Cc2ccc3c(c2)sc2ncnc(Nc4ccc(OCc5ccccn5)c(Cl)c4)c23)CC1` [Example 104, N-[3-chloro-4-(pyridin-2-ylmethoxy)phenyl]-7-{2-[4-(2-methoxyethyl)piperazin-1-yl]-2-oxoethyl}[1]benzothieno [2,3-d]pyrimidin-4-amine], the IC50 in test [1] is at most 50 µM; in test [2], at most 0.5 µM.

Consider `CN(C)CCNC(=O)Cc1ccc2c(c1)sc1ncnc(Nc3ccc(OCc4ccccn4)c(Cl)c3)c12` [Example 100, 2-(4-{[3-chloro-4-(pyridin-2-ylmethoxy)phenyl]amino}[1]benzothieno[2,3-d]pyrimidin-7-yl)-N-[(2-dimethylamino)ethyl]acetamide], for which the concentration for half-maximal inhibition (IC50) in test [1] is at most 50 µM; in test [2], at most 0.5 µM.

As to `OCCc1ccc2c(c1)sc1ncnc(Nc3ccc4c(cnn4Cc4ccccn4)c3)c12` [Example 132, 2-(4-{[1-(pyridin-2-ylmethyl)-1H-indazol-5-yl]amino}[1]benzothieno [2,3-d]pyrimidin-7-yl)ethanol], the 50% inhibitory concentration (IC50) is at most 5 µM in test [1] and at most 0.5 µM in test [2].

Consider `O=C(Cc1ccc2c(c1)sc1ncnc(Nc3ccc(OCc4ccccn4)c(Cl)c3)c12)N(CCO)CCO` [Example 105, 2(4-{[3-chloro-4-(pyridin-2-ylmethoxy)phenyl]amino}[1]benzothieno[2,3-d]pyrimidin-7-yl)-N,N-bis-(2-hydroxyethyl) acetamide], for which the figures for the 50% inhibitory concentration (IC50) in test [1] and in test [2] were at most 50 µM and at most 5 µM, respectively.

In the case of `OC[C@H](O)c1ccc2c(c1)sc1ncnc(Nc3ccc4c(cnn4Cc4cccc(F)c4)c3)c12` [Example 117, (1R)-1-(4-{[1-(3-fluorobenzyl)-1H-indazol-5-yl]amino}[1]benzothieno [2,3-d]pyrimidin-7-yl)ethane-1,2-diol], the IC50 in test [1] was at most 5 µM; in test [2], at most 0.5 µM.

As for `CN(C)[C@H]1CCN(C(=O)Cc2ccc3c(c2)sc2ncnc(Nc4ccc5c(cnn5Cc5cccc(F)c5)c4)c23)C1` [Example 125, 7-{2-[3-(dimethylamino)pyrrolidin-1-yl]-2-oxoethyl}-N-[1-(3-fluorobenzyl)-1H-indazol-5-yl] [1]benzothieno[2,3-d]pyrimidin-4-amine], the IC50 was at most 5 µM in test [1] and at most 0.5 µM in test [2].

As to `OC[C@H](O)c1ccc2c(c1)sc1ncnc(Nc3ccc(OCc4ccccn4)c(Cl)c3)c12` [Example 75, (1R)-1-(4-{[3-chloro-4-(pyridin-2-ylmethoxy)phenyl]amino}[1]benzothieno[2,3-d]pyrimidin-7-yl)ethane-1,2-diol], the values for the half-inhibitory concentration (IC50) in test [1] and in test [2] were at most 50 µM and at most 0.5 µM, respectively.

As to `CS(=O)(=O)CCNC(=O)C(O)C(O)c1ccc2c(c1)sc1ncnc(Nc3ccc(OCc4cccc(F)c4)c(Cl)c3)c12` (stereo not drawn) [Example 60, 3-[4-({3-chloro-4-[(3-fluorobenzyl)oxy]phenyl}amino) [1]benzothieno[2,3-d]pyrimidin-7-yl]-2,3-dihydroxy-N-[2-(methylsulfonyl)ethyl]propanamide], the IC50 was at most 50 µM in test [1] and at most 0.5 µM in test [2].

As for `CCOC(=O)C(Oc1ccc2c(c1)sc1ncnc(Nc3ccc(OCc4cccc(F)c4)c(Cl)c3)c12)C(=O)OCC` [Example 42, diethyl {[4-({3-chloro-4-[(3-fluorobenzyl)oxy]phenyl}amino)[1]benzothieno[2,3-d]pyrimidin-7-yl]oxy}malonate trifluoroacetate], the half-maximal inhibitory concentration (IC50) in test [1] was at most 50 µM; in test [2], at most 5 µM.

As to `CCOC(=O)Cc1ccc2c(c1)sc1ncnc(Nc3ccc(OCc4cscn4)c(Cl)c3)c12` [Example 134, ethyl (4-{[3-chloro-4-(1,3-thiazol-4-ylmethoxy)phenyl]amino}[1]benzothieno[2,3-d]pyrimidin-7-yl)acetate], the IC50 in test [1] is at most 50 µM; in test [2] it was at most 5 µM.

Regarding `Clc1cc(Nc2ncnc3sc4cc(NCCN5CCOCC5)ccc4c23)ccc1OCc1ccccn1` [Example 78, N4-[3-chloro-4-(pyridin-2-ylmethoxy)phenyl]-N7-(2-morpholin-4-ylethyl)[1] benzothieno[2,3-d]pyrimidine-4,7-diamine trifluoroacetate], the IC50 was at most 50 µM in test [1] and at most 5 µM in test [2].

As for `OC[C@@H](O)[C@H](O)c1ccc2c(c1)sc1ncnc(Nc3ccc(OCc4cccc(F)c4)c(Cl)c3)c12` [Example 64, (1R,2R)-1-[4-({3-chloro-4-[(3-fluorobenzyl)oxy]phenyl}amino)[1]benzothieno[2,3-d]pyrimidin-7-yl]propane-1,2,3-triol], the IC50 was at most 5 µM in test [1] and at most 0.5 µM in test [2].

Consider `Fc1cccc(Cn2ncc3cc(Nc4ncnc5sc6cc(Br)ccc6c45)ccc32)c1` [Example 113, 7-bromo-N-[1-(3-fluorobenzyl)-1H-indazol-5-yl][1]benzothieno [2,3-d]pyrimidin-4-amine], for which the IC50 was at most 50 µM in test [1] and at most 5 µM in test [2].

As for `Fc1cccc(COc2ccc(Nc3ncnc4sc5cc(OCCCN6CCOCC6)ccc5c34)cc2Cl)c1` [Example 39, N-{3-chloro-4-[(3-fluorobenzyl)oxy]phenyl}-7-(3-morpholin-4-ylpropoxy)[1] benzothieno[2,3-d]pyrimidin-4-amine], the IC50 in test [1] is at most 5 µM; in test [2] it was at most 0.5 µM.

As for `OC[C@H](O)COc1ccc2c(c1)sc1ncnc(Nc3ccc(OCc4cccc(F)c4)c(Cl)c3)c12` [Example 36, (2S)-3-{[4-({3-chloro-4-[(3-fluorobenzyl)oxy]phenyl}amino)[1]benzothieno[2,3-d]pyrimidin-7-yl]oxy}propane-1,2-diol], the IC50 in test [1] is at most 5 µM; in test [2] it was at most 0.5 µM.

Consider `Fc1cccc(COc2ccc(Nc3ncnc4sc5cc(CCN6CCCC6)ccc5c34)cc2Cl)c1` [Example 11, N-{3-chloro-4-[(3-fluorobenzyl)oxy]phenyl}-7-(2-pyrrolidin-1-ylethyl)[1] benzothieno[2,3-d]pyrimidin-4-amine], for which the IC50 in test [1] was at most 5 µM; in test [2], at most 0.5 µM.

For `Fc1cccc(COc2ccc(Nc3ncnc4sc5cc(CCNCCN6CCOCC6)ccc5c34)cc2Cl)c1` [Example 16, N-{3-chloro-4-[(3-fluorobenzyl)oxy]phenyl}-7-{2-[(2-morpholin-4-ylethyl)amino]ethyl}[1] benzothieno[2,3-d]pyrimidin-4-amine], the half-inhibitory concentration (IC50) in test [1] was at most 50 µM; in test [2], at most 0.5 µM.

As usually defined, the IC50 is the concentration that gives 50% inhibition.
